Test results from US20120115903A1, “Substituted Heteroaromatic Carboxamide and Urea Compounds as Vanilloid Receptor Ligands” (Gruenenthal GmbH, priority 2010, published 2012).

Key:
Type in all cases: cell-based
[1] = target: T1, vanilloid receptor 1 (VR1/TRPV1 receptor) (Homo sapiens, UniProt Q8NER1); assay: FLIPR Ca2+ influx assay with CHO K1 cells transfected with the human VR1 gene, capsaicin stimulus; details: Cap = capsaicin (100 nM), Ki from IC50 by Cheng-Prusoff, read-out: Ki (human being) [nM] Cap
T1 construct: expressed in transfected cells; host or cells: CHO K1 cells (ECACC), stably transfected
T1 sequence (Q8NER1 whole entry): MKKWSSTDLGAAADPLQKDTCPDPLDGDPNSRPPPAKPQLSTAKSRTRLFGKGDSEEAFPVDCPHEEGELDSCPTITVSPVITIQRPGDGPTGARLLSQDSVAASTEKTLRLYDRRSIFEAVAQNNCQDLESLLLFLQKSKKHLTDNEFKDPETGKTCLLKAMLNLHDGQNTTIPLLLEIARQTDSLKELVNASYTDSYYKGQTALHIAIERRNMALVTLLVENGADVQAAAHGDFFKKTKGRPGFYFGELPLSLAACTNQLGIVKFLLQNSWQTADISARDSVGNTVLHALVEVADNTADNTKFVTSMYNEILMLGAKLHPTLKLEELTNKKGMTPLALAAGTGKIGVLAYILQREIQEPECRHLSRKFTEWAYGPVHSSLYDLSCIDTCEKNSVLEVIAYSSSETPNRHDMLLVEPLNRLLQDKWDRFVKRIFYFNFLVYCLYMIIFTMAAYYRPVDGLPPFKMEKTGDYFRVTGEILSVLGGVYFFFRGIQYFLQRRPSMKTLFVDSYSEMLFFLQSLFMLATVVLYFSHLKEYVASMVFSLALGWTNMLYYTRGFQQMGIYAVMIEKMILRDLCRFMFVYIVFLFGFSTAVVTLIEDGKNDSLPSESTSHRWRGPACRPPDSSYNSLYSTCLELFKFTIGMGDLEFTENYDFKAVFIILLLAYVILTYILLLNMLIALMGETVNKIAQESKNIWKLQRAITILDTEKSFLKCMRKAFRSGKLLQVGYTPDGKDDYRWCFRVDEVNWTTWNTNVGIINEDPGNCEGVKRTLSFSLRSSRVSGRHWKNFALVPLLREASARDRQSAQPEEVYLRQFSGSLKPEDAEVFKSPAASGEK
Description: Furthermore, preference may be given to compounds according to the invention of general formula (I) that cause a 50 percent displacement of capsaicin, which is present at a concentration of 100 nM, in a FLIPR assay with CHO K1 cells which were transfected with the human VR1 gene at a concentration of less than 2,000 nM, preferably less than 1,000 nM, particularly preferably less than 300 nM, most particularly preferably less than 100 nM, even more preferably less than 75 nM, additionally preferably less than 50 nM, most preferably less than 10 nM. In the process, the Ca^2+ influx is quantified in the FLIPR assay with the aid of a Ca^2+-sensitive dye (type Fluo-4, Molecular Probes Europe BV, Leiden, the Netherlands) in a fluorescent imaging plate reader (FLIPR, Molecular Devices, Sunnyvale, USA), as described hereinafter. The agonistic or antagonistic effect of the substances to be tested on the vanilloid receptor 1 (VR1) can also be determined using the following assay. In this assay, the influx of Ca^2+ through the channel is quantified with the aid of a Ca^2+-sensitive dye (type Fluo-4, Molecular Probes Europe BV, Leiden, the Netherlands) in a fluorescent imaging plate reader (FLIPR, Molecular Devices, Sunnyvale, USA). Chinese hamster ovary cells (CHO K1 cells, European Collection of Cell Cultures (ECACC) United Kingdom) are stably transfected with the VR1 gene. For functional testing, these cells are plated out on poly-D-lysine-coated black 96-well plates having a clear base (BD Biosciences, Heidelberg, Germany) at a density of 25,000 cells/well. The cells are incubated overnight at 37° C. and 5% CO2 in a culture medium (Ham's F12 nutrient mixture, 10% by volume of FCS (foetal calf serum), 18 μg/ml of L-proline). The next day the cells are incubated with Fluo-4 (Fluo-4 2 μM, 0.01% by volume of Pluronic F127, Molecular Probes in HBSS (Hank's buffered saline solution), Gibco Invitrogen GmbH, Karlsruhe, Germany) for 30 minutes at 37° C. Subsequently, the plates are washed three times with HBSS buffer and after further incubation for 15 minutes at RT used for Ca^2+ measurement in a FLIPR assay. The Ca^2+-dependent fluorescence is measured before and after the addition of the substances to be tested (λex wavelength=488 nm, λem=540 nm). Quantification is carried out by measuring the highest fluorescence intensity (FC, fluorescence counts) over time. The FLIPR protocol consists of 2 substance additions. First the compounds to be tested (10 μM) are pipetted onto the cells and the Ca^2+ influx is compared with the control (capsaicin 10 μM) (% activation based on the Ca^2+ signal after the addition of 10 μM of capsaicin). After 5 minutes' incubation, 100 nM of capsaicin are applied and the Ca^2+ influx is also determined. Desensitising agonists and antagonists led to suppression of the Ca^2+ influx. The % inhibition is calculated compared to the maximum achievable inhibition with 10 μM of capsaicin. Starting from the percentage displacement caused by different concentrations of the compounds to be tested of general formula I, IC50 inhibitory concentrations which cause a 50-percent displacement of capsaicin were calculated. K, values for the test substances were obtained by conversion by means of the Cheng-Prusoff equation (Cheng, Prusoff; Biochem. Pharmacol. 22, 3099-3108, 1973). The affinity of the compounds according to the invention for the vanilloid receptor 1 (VR1/TRPV1 receptor) was determined as described hereinbefore (pharmacological methods I and II respectively). The compounds according to the invention of the above-indicated formula (I) display outstanding affinity to the VR1/TRPV1 receptor (Table 1.).

[2] = target: T2, vanilloid receptor 1 (VR1/TRPV1 receptor) (Mus musculus, UniProt Q704Y3); assay: FLIPR Ca2+ influx assay on vanilloid receptor 1, capsaicin stimulus (mouse); details: Cap = capsaicin, Ki from IC50 by Cheng-Prusoff
T2 construct: expressed in transfected cells; host or cells: CHO K1 cells (inferred: method II; method I is described for rat DRG neurons only)
T2 sequence (Q704Y3 whole entry): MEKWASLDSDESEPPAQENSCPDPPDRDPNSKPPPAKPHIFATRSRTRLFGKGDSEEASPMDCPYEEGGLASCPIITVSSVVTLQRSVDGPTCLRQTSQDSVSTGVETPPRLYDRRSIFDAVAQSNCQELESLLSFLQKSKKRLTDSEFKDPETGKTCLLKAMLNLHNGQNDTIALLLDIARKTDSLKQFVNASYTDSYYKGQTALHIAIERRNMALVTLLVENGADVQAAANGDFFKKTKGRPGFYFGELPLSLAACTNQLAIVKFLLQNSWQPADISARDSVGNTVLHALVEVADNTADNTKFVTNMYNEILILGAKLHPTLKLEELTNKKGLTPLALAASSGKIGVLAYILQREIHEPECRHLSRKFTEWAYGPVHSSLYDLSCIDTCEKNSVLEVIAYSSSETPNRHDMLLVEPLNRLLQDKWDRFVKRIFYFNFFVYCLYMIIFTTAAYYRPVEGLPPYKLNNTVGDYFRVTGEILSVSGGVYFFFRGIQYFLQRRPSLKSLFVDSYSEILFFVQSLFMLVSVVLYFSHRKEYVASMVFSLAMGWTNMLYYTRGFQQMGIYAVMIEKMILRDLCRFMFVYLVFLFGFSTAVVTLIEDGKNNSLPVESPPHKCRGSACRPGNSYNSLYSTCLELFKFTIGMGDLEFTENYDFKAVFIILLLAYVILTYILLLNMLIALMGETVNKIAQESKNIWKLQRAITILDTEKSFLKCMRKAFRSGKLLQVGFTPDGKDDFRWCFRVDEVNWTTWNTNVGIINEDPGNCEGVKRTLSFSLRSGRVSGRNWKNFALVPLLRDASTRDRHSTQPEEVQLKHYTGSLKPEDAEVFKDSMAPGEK
Description: The agonistic or antagonistic effect of the substances to be tested on the vanilloid receptor 1 (VR1) can also be determined using the following assay. In this assay, the influx of Ca^2+ through the channel is quantified with the aid of a Ca^2+-sensitive dye (type Fluo-4, Molecular Probes Europe BV, Leiden, the Netherlands) in a fluorescent imaging plate reader (FLIPR, Molecular Devices, Sunnyvale, USA).
Chinese hamster ovary cells (CHO K1 cells, European Collection of Cell Cultures (ECACC) United Kingdom) are stably transfected with the VR1 gene. […] The Ca^2+-dependent fluorescence is measured before and after the addition of the substances to be tested (λex wavelength=488 nm, λem=540 nm). Quantification is carried out by measuring the highest fluorescence intensity (FC, fluorescence counts) over time.
The FLIPR protocol consists of 2 substance additions. […] After 5 minutes' incubation, 100 nM of capsaicin are applied and the Ca^2+ influx is also determined. […]
Starting from the percentage displacement caused by different concentrations of the compounds to be tested of general formula I, IC50 inhibitory concentrations which cause a 50-percent displacement of capsaicin were calculated. […]
The affinity of the compounds according to the invention for the vanilloid receptor 1 (VR1/TRPV1 receptor) was determined as described hereinbefore (pharmacological methods I and II respectively). […]

[3] = target: T1, vanilloid receptor 1 (VR1/TRPV1 receptor); assay: Functional test on vanilloid receptor 1, 45° C. stimulus (human); details: for IC50: read-out: IC50 (human being) [nM], 45° C.
[4] = target: T1, vanilloid receptor 1 (VR1/TRPV1 receptor); assay: FLIPR Ca2+ influx assay with CHO K1 cells transfected with the human VR1 gene, capsaicin stimulus; details: read-out: inhibition (as a percentage), human being, Cap; for inhibition at 5 µM: @ 5 μM compound

Q: For `CC(C(=O)NCc1cc(C(F)(F)F)nn1-c1ccccc1)c1cn(C)c2ccccc12` (stereo not shown) [Example 1, 2-(1-methyl-1H-indol-3-yl)-N-((1-phenyl-3-(trifluoromethyl)-1H-pyrazol-5-yl)methyl)propanamide], which Ki [1] is on record?
A: The Ki was 42.1 nM.

Q: `CC(C(=O)NCc1cc(C(C)(C)C)nn1-c1cccc(Cl)c1)c1cn(C)c2ccccc12` (stereo not shown) [Example 2, N-((3-tert-butyl-1-(3-chlorophenyl)-1H-pyrazol-5-yl)methyl)-2-(1-methyl-1H-indol-3-yl)propanamide] was tested. Which Ki [1] did it give?
A: The Ki was 33.6 nM.

Q: For `COc1cccc(-n2nc(C(F)(F)F)cc2CNC(=O)C(C)c2cn(C)c3ccccc23)c1` (stereo not shown) [Example 3, N-((1-(3-methoxyphenyl)-3-(trifluoromethyl)-1H-pyrazol-5-yl)methyl)-2-(1-methyl-1H-indol-3-yl)propanamide], which Ki [1] is on record?
A: Its Ki is 49.8 nM.

Q: For `Cc1cccc(-n2nc(C(F)(F)F)cc2CNC(=O)C(C)c2cn(C)c3ccc(O)cc23)c1` (stereo not shown) [Example 5, 2-(5-hydroxy-1-methyl-1H-indol-3-yl)-N-((1-m-tolyl-3-(trifluoromethyl)-1H-pyrazol-5-yl)methyl)propanamide], which Ki [2] is on record?
A: Its Ki is 38.5 nM.

Q: What about the Ki [1] of the same molecule?
A: The Ki was 0.6 nM.

Q: `CC(C(=O)NCc1cc(C(C)(C)C)nn1-c1ccccn1)c1cn(C)c2ccc(O)cc12` (stereo not shown) [Example 6, N-((3-tert-butyl-1-(pyridin-2-yl)-1H-pyrazol-5-yl)methyl)-2-(5-hydroxy-1-methyl-1H-indol-3-yl)propanamide] was tested. Which Ki [1] did it give?
A: Its Ki is 56.8 nM.

Q: For `Cc1c(C(F)(F)F)nn(-c2cccc(Cl)c2)c1CNC(=O)C(C)c1cn(C)c2ccc(O)cc12` (stereo not shown) [Example 7, N-((1-(3-chlorophenyl)-4-methyl-3-(trifluoromethyl)-1H-pyrazol-5-yl)methyl)-2-(5-hydroxy-1-methyl-1H-indol-3-yl)propanamide], which inhibition at 2.5 µM ([3]; @ 2.5 μM compound, read-out: inhibition (as a percentage), human being, 45° C.) is on record?
A: Its inhibition at 2.5 µM is 36%.

Q: And the Ki [1]?
A: Its Ki is 0.4 nM.

Q: What does the source list for `CC(C(=O)NCc1cc(C(F)(F)F)nn1-c1cccc(Cl)c1)c1cn(C)c2ccccc12` (stereo not shown) [Example 8, N-((1-(3-chlorophenyl)-3-(trifluoromethyl)-1H-pyrazol-5-yl)methyl)-2-(1-methyl-1H-indol-3-yl)propanamide]?
A: IC50 [3]: 924 nM; Ki [1]: 6.4 nM

Q: How did the IC50 [3] turn out when `Cn1cc(CC(=O)NCc2cc(C(F)(F)F)nn2-c2cccc(Cl)c2)c2cc(O)ccc21` [Example 9, N-((1-(3-chlorophenyl)-3-(trifluoromethyl)-1H-pyrazol-5-yl)methyl)-2-(5-hydroxy-1-methyl-1H-indol-3-yl)acetamide] was run?
A: Its IC50 is 1730 nM.

Q: What about the Ki [1] of the same molecule?
A: The Ki was 0.25 nM.

Q: How did the IC50 [3] turn out when `CC(C(=O)NCc1cc(C(C)(C)C)nn1-c1ccc(F)c(Cl)c1)c1cn(C)c2ccc(O)cc12` (stereo not shown) [Example 11, N-((3-tert-butyl-1-(3-chloro-4-fluorophenyl)-1H-pyrazol-5-yl)methyl)-2-(5-hydroxy-1-methyl-1H-indol-3-yl)propanamide] was run?
A: The IC50 was 39 nM.

Q: And the Ki [1]?
A: Its Ki is 0.7 nM.

Q: Which results are given for `CC(C(=O)NCc1cc(C2CC2)nn1-c1cccc(Cl)c1)c1cn(C)c2ccc(O)cc12` (stereo not shown) [Example 12, N-((1-(3-chlorophenyl)-3-cyclopropyl-1H-pyrazol-5-yl)methyl)-2-(5-hydroxy-1-methyl-1H-indol-3-yl)propanamide]?
A: IC50 [3]: 95.8 nM; Ki [1]: 1.1 nM

Q: With `COc1ccc2c(c1)c(CC(=O)NCc1cc(C(C)(C)C)nn1-c1cccc(Cl)c1)cn2C` [Example 13, N-((3-tert-butyl-1-(3-chlorophenyl)-1H-pyrazol-5-yl)methyl)-2-(5-methoxy-1-methyl-1H-indol-3-yl)acetamide] as the molecule, how does the Ki [1] read?
A: The Ki was 33.3 nM.

Q: With `COc1ccc2c(c1)c(C(C)C(=O)NCc1cc(C(C)(C)C)nn1-c1cccc(Cl)c1)cn2C` (stereo not shown) [Example 14, N-((3-tert-butyl-1-(3-chlorophenyl)-1H-pyrazol-5-yl)methyl)-2-(5-methoxy-1-methyl-1H-indol-3-yl)propanamide] as the molecule, how does the Ki [1] read?
A: The Ki was 48.1 nM.

Q: `CC(C(=O)NCc1cc(C(F)(F)F)nn1CC1CC1)c1cn(C)c2ccccc12` (stereo not shown) [Example 15, N-((1-(cyclopropylmethyl)-3-(trifluoromethyl)-1H-pyrazol-5-yl)methyl)-2-(1-methyl-1H-indol-3-yl)propanamide] was tested. Which inhibition at 5 µM [4] did it give?
A: Its inhibition at 5 µM is 14%.

Q: How did the inhibition at 5 µM [4] turn out when `O=C(NCc1cc(C(F)(F)F)nn1-c1cccc(Cl)c1)Nc1n[nH]c2ccccc12` [Example 16, 1-((1-(3-chlorophenyl)-3-(trifluoromethyl)-1H-pyrazol-5-yl)methyl)-3-(1H-indazol-3-yl)urea] was run?
A: The inhibition at 5 µM was 24%.

Q: How did the inhibition at 1 µM ([4]; @ 1 μM compound) turn out when `Cn1nc(NC(=O)NCc2cc(C(F)(F)F)nn2-c2cccc(Cl)c2)c2cccnc21` [Example 17, 1-((1-(3-chlorophenyl)-3-(trifluoromethyl)-1H-pyrazol-5-yl)methyl)-3-(1-methyl-1H-pyrazolo[3,4-b]pyridin-3-yl)urea] was run?
A: Its inhibition at 1 µM is 4%.

Q: And the inhibition at 5 µM [4]?
A: The inhibition at 5 µM was 30%.

Q: Which Ki [1] does the source give for `Cn1cc(CC(=O)NCc2nc(C(C)(C)C)nn2-c2cccc(Cl)c2)c2cc(O)ccc21` [Example 18, N-((3-tert-butyl-1-(3-chlorophenyl)-1H-1,2,4-triazol-5-yl)methyl)-2-(5-hydroxy-1-methyl-1H-indol-3-yl)acetamide] here?
A: The Ki was 70.9 nM.

Q: How did the IC50 [3] turn out when “N-((1-cyclopentyl-3-(trifluoromethyl)-1H-pyrazol-5-yl)methyl)-2-(5-hydroxy-1-methyl-1H-indol-3-yl)propanamide [Example 4]” was run?
A: Its IC50 is 92 nM.

Q: What about the Ki [1] of the same molecule?
A: The Ki was 4.8 nM.
